From publication PMC10503797, “Allosteric modulator potentiates β2AR agonist–promoted bronchoprotection in asthma models” (The Journal of Clinical Investigation, 2023)
“And” between values parts separate entries of the source, which are not always exact repeats. Equal values may be shown once.

Legend:
guinea pig lung slices = assay: Methacholine-induced airway constriction in guinea pig lung slices; type: cell-based; set-up: key to MCh-induced airway constriction response (Figure 5D): % of initial (baseline) airway luminal area; details: for MCh-induced airway constriction response (Figure 5D): 10 µM Fenoterol + 25 µM Cmp6, Exp1-6
Description: All curve fits were generated using the software program GraphPad Prism. Data are represented as mean ± SEM obtained from 6 guinea pigs.
(§1) Precision-cut lung slices were prepared as described previously ([61], [62]). A 3% solution of low melting-point agarose (Gerbu Biotechnik GmbH) in ultrapure water was prepared by heating it a microwave until fully dissolved. […] After filling, the lungs were covered with ice for 30 minutes to solidify the agarose for slicing. […] Lung slices were cut at a thickness of 500 μm and washed several times with slicing buffer to remove debris and washout the isoproterenol. Slices were incubated overnight in a 60 mm dish in sterile incubation buffer: MEM composed of lung slice buffer supplemented with 0.5 mM sodium pyruvate, 1 mM glutamine (Gibco), MEM-amino acids mixture (1:50), MEM-vitamins mixture (1:100; Gibco), and penicillin-streptomycin (1:100; Gibco), pH = 7.2, at 37°C in a CO2- and humidity-controlled atmosphere.
(§2) After washing the slices in medium, individual guinea pig lung slices were mechanically maintained with a Teflon ring with an inner diameter of 7 mm and covered with 1 mL of incubation buffer. […] Image acquisition software (NIS-Elements, Nikon) was used to quantify airway luminal area. Images of the airways were acquired every 2 seconds during the whole course of the experiment, starting 2 minutes before the addition of any agent to allow for baseline measurements of the airway caliber. For each methacholine or ovalbumin concentration, the maximal airway constriction was expressed as percentage of the initial (baseline) airway luminal area and plotted against that concentration.

WT murine β2AR = WT murine β2AR (Mus musculus, UniProt P18762); assay: 125I-CYP radioligand competition binding, WT murine β2AR; details: WT DMSO
Sequence of WT murine β2AR (P18762 whole entry): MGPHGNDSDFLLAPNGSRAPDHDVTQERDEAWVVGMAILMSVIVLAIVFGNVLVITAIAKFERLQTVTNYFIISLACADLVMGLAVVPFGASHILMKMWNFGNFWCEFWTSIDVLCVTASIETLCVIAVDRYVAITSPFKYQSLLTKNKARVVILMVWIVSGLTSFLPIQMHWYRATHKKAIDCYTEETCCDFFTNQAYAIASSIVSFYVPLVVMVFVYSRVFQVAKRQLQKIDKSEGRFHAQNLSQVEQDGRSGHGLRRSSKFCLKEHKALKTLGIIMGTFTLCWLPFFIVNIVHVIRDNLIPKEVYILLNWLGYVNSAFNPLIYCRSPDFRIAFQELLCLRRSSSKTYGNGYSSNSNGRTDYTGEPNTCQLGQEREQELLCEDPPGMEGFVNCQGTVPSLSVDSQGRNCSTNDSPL
Description: (§3) Statistical analyses were performed using 1-way ANOVA, repeated (related) measures with Tukey’s posthoc test.

V133F mutant murine β2AR = V133F mutant murine β2AR (Mus musculus, UniProt P18762, V133F); assay: 125I-CYP radioligand competition binding, V133F mutant murine β2AR; details: V133F DMSO
Sequence of V133F mutant murine β2AR (P18762 whole entry V133F): as the sequence (P18762 whole entry) above, with V133F counted along it
Description: as §3

guinea pig β2AR = guinea pig β2AR (Cavia porcellus, UniProt Q8K4Z4); assay: 125I-CYP radioligand competition binding, guinea pig β2AR; details: DMSO
Sequence of guinea pig β2AR (Q8K4Z4 whole entry): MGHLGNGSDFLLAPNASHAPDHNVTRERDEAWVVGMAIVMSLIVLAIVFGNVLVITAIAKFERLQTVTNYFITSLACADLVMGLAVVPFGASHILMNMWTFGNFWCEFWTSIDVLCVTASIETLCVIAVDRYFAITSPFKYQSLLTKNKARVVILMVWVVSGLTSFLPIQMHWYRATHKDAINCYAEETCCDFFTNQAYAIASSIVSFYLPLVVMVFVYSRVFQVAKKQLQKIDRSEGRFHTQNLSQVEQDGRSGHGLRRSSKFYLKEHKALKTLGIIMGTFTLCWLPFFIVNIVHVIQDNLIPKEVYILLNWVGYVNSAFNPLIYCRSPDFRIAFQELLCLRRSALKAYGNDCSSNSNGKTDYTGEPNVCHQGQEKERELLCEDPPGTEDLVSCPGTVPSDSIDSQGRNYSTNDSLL

[1] = test system: lung slices obtained from ovalbumin-sensitized guinea pigs; assay: Ovalbumin-induced airway constriction in lung slices from ovalbumin-sensitized guinea pigs; type: cell-based, guinea pig; details: ovalbumin-sensitized guinea pigs; no treatment
Excerpt: All curve fits were generated using the software program GraphPad Prism. Data are represented as mean ± SEM of 4–5 guinea pigs (see Table 2 for statistical analyses).
Outbred, male, specified pathogen-free Dunkin Hartley guinea pigs (Charles River Laboratory) weighing 200 to 400 g were used. The animals were housed in pairs under a 12-hour light/dark cycle in a temperature- and humidity-controlled room with food and tap water ad libitum. For studies in the guinea pig model of allergic asthma, animals were actively IgE-sensitized to ovalbumin by injecting a suspension containing 100 μg/mL ovalbumin and 100 mg/mL Al(OH)3 in saline. Each animal was injected with 1.0 mL of suspension: 0.5 mL was injected i.p. and 0.5 mL was divided over 7 s.c. sites close to lymph nodes in the neck, paws, and lumbar regions ([24]). Animals were euthanized at least 4 weeks after sensitization.
as §1, §2

COc1ccc(Sc2ccc(S(=O)(=O)N(C)C(C)C)cc2C(=O)N[C@H](CC(N)=O)Cc2ccc(C(C)(C)C)cc2)cc1 [Cmp6]
MCh-induced airway constriction response (Figure 5D) (guinea pig lung slices; -Log [MCh] 6.5): 84.9 and 96.3 and 94.4 and 89.0 and 84.3 | MCh-induced airway constriction response (Figure 5D) (guinea pig lung slices; -Log [MCh] 7): 103.8 and 101.2 and 95.0 and 101.0 and 99.7 | MCh-induced airway constriction response (Figure 5D) (guinea pig lung slices; -Log [MCh] 7.5): 104.7 and 102.5 and 101.8 and 96.6 and 103.6 and 102.8 | MCh-induced airway constriction response (Figure 5D) (guinea pig lung slices; -Log [MCh] 8): 105.1 and 102.7 and 102.2 and 96.3 and 103.7 and 102.1

CC(=O)OC(C)C[N+](C)(C)C (stereo not shown) [Methacholine, methacholine]
EC50 (guinea pig lung slices; Cavia porcellus, naive guinea pigs, no treatment, read-out: EC50 of airway constriction): 250 ± 60 nM

CC(C)NCC(O)c1ccc(O)c(O)c1 (stereo not shown) [ISO, isoproterenol, reference compound]
125I-CYP binding (% of maximal) (WT murine β2AR; log[ISO] -4 M): -0.1438% and -0.4111% and -0.227% and -0.3498% | 125I-CYP binding (% of maximal) (WT murine β2AR; log[ISO] -4.49485 M): 2.592% and 1.529% and 1.507% and 1.987% | 125I-CYP binding (% of maximal) (WT murine β2AR; log[ISO] -5.09691 M): 7.083% and 4.639% and 5.507% and 5.149% | 125I-CYP binding (% of maximal) (WT murine β2AR; log[ISO] -5.69897 M): 19.715% and 17.6774% and 15.359% and 15.8985% | 125I-CYP binding (% of maximal) (WT murine β2AR; log[ISO] -6.30103 M): 44.1973% and 39.2701% and 36.5787% and 38.852% | 125I-CYP binding (% of maximal) (WT murine β2AR; log[ISO] -6.90309 M): 69.5556% and 67.7036% and 62.3553% and 65.7463% | 125I-CYP binding (% of maximal) (WT murine β2AR; log[ISO] -7.50515 M): 90.4216% and 85.9767% and 84.6762% and 89.3527% | 125I-CYP binding (% of maximal) (WT murine β2AR; log[ISO] -8.10721 M): 98.0111% and 97.6178% and 94.6894% and 94.0001% | 125I-CYP binding (% of maximal) (WT murine β2AR; log[ISO] -8.70927 M): 99.06% and 99.1113% and 98.9767% and 100.68% | 125I-CYP binding (% of maximal) (WT murine β2AR; log[ISO] -9.31133 M): 98.5309% and 100.484% and 102.846% and 102.836% | 125I-CYP binding (% of maximal) (WT murine β2AR; log[ISO] -9.91339 M): 103.967% and 101.665% and 101.826% and 99.0182% | 125I-CYP binding (% of maximal) (V133F mutant murine β2AR; log[ISO] -4 M): -0.1642% and -0.422% and -0.2235% and 0.05522% | 125I-CYP binding (% of maximal) (V133F mutant murine β2AR; log[ISO] -4.49485 M): 1.355% and 1.539% and 1.229% and 0.6906% | 125I-CYP binding (% of maximal) (V133F mutant murine β2AR; log[ISO] -5.09691 M): 4.785% and 4.497% and 3.5069% and 4.749% | 125I-CYP binding (% of maximal) (V133F mutant murine β2AR; log[ISO] -5.69897 M): 14.8509% and 14.5905% and 12.5433% and 13.7771% | 125I-CYP binding (% of maximal) (V133F mutant murine β2AR; log[ISO] -6.30103 M): 36.9962% and 34.2695% and 32.8754% and 34.2526% | 125I-CYP binding (% of maximal) (V133F mutant murine β2AR; log[ISO] -6.90309 M): 66.198% and 62.9489% and 57.7767% and 62.1859% | 125I-CYP binding (% of maximal) (V133F mutant murine β2AR; log[ISO] -7.50515 M): 86.6591% and 87.6539% and 79.9524% and 86.2876% | 125I-CYP binding (% of maximal) (V133F mutant murine β2AR; log[ISO] -8.10721 M): 96.9071% and 95.4546% and 94.0497% and 96.919% | 125I-CYP binding (% of maximal) (V133F mutant murine β2AR; log[ISO] -8.70927 M): 99.4994% and 99.6962% and 98.92% and 100.879% | 125I-CYP binding (% of maximal) (V133F mutant murine β2AR; log[ISO] -9.31133 M): 99.9887% and 99.7215% and 100.53% and 99.951% | 125I-CYP binding (% of maximal) (V133F mutant murine β2AR; log[ISO] -9.91339 M): 102.257% and 101.759% and 102.441% and 98.1746% | 125I-CYP binding, ISO competition curve (Figure 4B) (guinea pig β2AR; Log [ISO] (M) -4.49485): 1.551 and 1.783 and 2.036 and 2.11 and 1.706 | 125I-CYP binding, ISO competition curve (Figure 4B) (guinea pig β2AR; Log [ISO] (M) -5.09691): 4.5383 and 7.032 and 7.563 and 7.078 and 5.303 | 125I-CYP binding, ISO competition curve (Figure 4B) (guinea pig β2AR; Log [ISO] (M) -5.69897): 13.7083 and 20.96 and 21.5014 and 20.9933 and 15.5868 | 125I-CYP binding, ISO competition curve (Figure 4B) (guinea pig β2AR; Log [ISO] (M) -6.90309): 63.0711 and 57.4939 and 78.0004 and 74.7226 and 70.0255 | 125I-CYP binding, ISO competition curve (Figure 4B) (guinea pig β2AR; Log [ISO] (M) -7.50515): 85.6262 and 93.2237 and 94.6971 and 93.7843 and 89.3743 | 125I-CYP binding, ISO competition curve (Figure 4B) (guinea pig β2AR; Log [ISO] (M) -8.10721): 99.3825 and 97.8919 and 98.1464 and 96.8121 and 98.8078 | 125I-CYP binding, ISO competition curve (Figure 4B) (guinea pig β2AR; Log [ISO] (M) -8.70927): 98.4434 and 97.4234 and 99.4183 and 101.041 and 99.2113 | 125I-CYP binding, ISO competition curve (Figure 4B) (guinea pig β2AR; Log [ISO] (M) -9.31133): 100.682 and 98.3967 and 100.968 and 99.8594 and 99.9768 | 125I-CYP binding, ISO competition curve (Figure 4B) (guinea pig β2AR; Log [ISO] (M) -9.91339): 97.8042 and 98.3188 and 100.175 and 101.941 and 100.458

B1: Ovalbumin: the allergen used in IgE-sensitized guinea pigs (protein, UniProt P01012 2-386, looked up)
Ovalbumin: GSIGAASMEFCFDVFKELKVHHANENIFYCPIAIMSALAMVYLGAKDSTRTQINKVVRFDKLPGFGDSIEAQCGTSVNVHSSLRDILNQITKPNDVYSFSLASRLYAEERYPILPEYLQCVKELYRGGLEPINFQTAADQARELINSWVESQTNGIIRNVLQPSSVDSQTAMVLVNAIVFKGLWEKAFKDEDTQAMPFRVTEQESKPVQMMYQIGLFRVASMASEKMKILELPFASGTMSMLVLLPDEVSGLEQLESIINFEKLTEWTSSNVMEERKIKVYLPRMKMEEKYNLTSVLMAMGITDVFSSSANLSGISSAESLKISQAVHAAHAEINEAGREVVGSAEAGVDAASVSEEFRADHPFLFCIKHIATNAVLFFGRCVSP
EC50 of airway constriction [1]: 8.0 ± 2.4 ng/mL
